Activity coefficient data for 28 molecules are collected here from the NIST ThermoML archive (doi:10.1016/j.jct.2018.01.003).

± gives the expanded uncertainty stated by the source.

This data set is described as follows: activity coefficient (dimensionless); of the first substance listed, at infinite dilution; xn = mol fraction of the nth substance listed. Particulars: 101.33 kPa, Liquid, Chromatography, x1 = 0.

On to `Cc1ccccc1C` [1,2-dimethylbenzene] + CCCCCCCCCCCCCC[P+](CCCCCC)(CCCCCC)CCCCCC.N#CC(=C=[N-])C#N, for which the activity coefficient was determined as 0.646 ± 0.044 (328.15 K); 0.677 ± 0.046 (338.15 K); 0.706 ± 0.047 (348.15 K); 0.734 ± 0.049 (358.15 K); 0.76 ± 0.05 (368.15 K).
On to `Cc1cccc(C)c1` [1,3-dimethylbenzene] + CCCCCCCCCCCCCC[P+](CCCCCC)(CCCCCC)CCCCCC.N#CC(=C=[N-])C#N, for which the activity coefficient is, setting by setting: (328.15 K) 0.713 ± 0.048; (338.15 K) 0.74 ± 0.049; (348.15 K) 0.77 ± 0.05; (358.15 K) 0.8 ± 0.052; (368.15 K) 0.826 ± 0.053.
Take `Cc1ccc(C)cc1` [1,4-dimethylbenzene] + CCCCCCCCCCCCCC[P+](CCCCCC)(CCCCCC)CCCCCC.N#CC(=C=[N-])C#N: the activity coefficient was 0.71 ± 0.047 (328.15 K); 0.742 ± 0.049 (338.15 K); 0.773 ± 0.051 (348.15 K); 0.804 ± 0.052 (358.15 K); 0.83 ± 0.053 (368.15 K).
Take `C1COCCO1` [1,4-dioxane] + CCCCCCCCCCCCCC[P+](CCCCCC)(CCCCCC)CCCCCC.N#CC(=C=[N-])C#N: the activity coefficient is 0.578 ± 0.041 (328.15 K); 0.594 ± 0.042 (338.15 K); 0.608 ± 0.043 (348.15 K); 0.628 ± 0.043 (358.15 K); 0.642 ± 0.044 (368.15 K).
On to `C=CCCCCCCCC` [1-decene] + CCCCCCCCCCCCCC[P+](CCCCCC)(CCCCCC)CCCCCC.N#CC(=C=[N-])C#N, for which the activity coefficient reads like this: (328.15 K) 2.32 ± 0.16; (338.15 K) 2.37 ± 0.16; (348.15 K) 2.41 ± 0.16; (358.15 K) 2.45 ± 0.17; (368.15 K) 2.49 ± 0.17.
Turning to `C=CCCCCC` [1-heptene] + CCCCCCCCCCCCCC[P+](CCCCCC)(CCCCCC)CCCCCC.N#CC(=C=[N-])C#N, the activity coefficient turned out to be 1.56 ± 0.1 (328.15 K); 1.6 ± 0.11 (338.15 K); 1.64 ± 0.11 (348.15 K); 1.67 ± 0.11 (358.15 K); 1.7 ± 0.11 (368.15 K).
Take `C#CCCCCC` [1-heptyne] + CCCCCCCCCCCCCC[P+](CCCCCC)(CCCCCC)CCCCCC.N#CC(=C=[N-])C#N: the activity coefficient is, setting by setting: (328.15 K) 0.938 ± 0.059; (338.15 K) 0.982 ± 0.062; (348.15 K) 1.03 ± 0.06; (358.15 K) 1.07 ± 0.07; (368.15 K) 1.11 ± 0.07.
Consider `C#CCCCC` [1-hexyne] + CCCCCCCCCCCCCC[P+](CCCCCC)(CCCCCC)CCCCCC.N#CC(=C=[N-])C#N, for which the activity coefficient is, setting by setting: (328.15 K) 0.833 ± 0.054; (338.15 K) 0.875 ± 0.056; (348.15 K) 0.914 ± 0.058; (358.15 K) 0.952 ± 0.06; (368.15 K) 0.987 ± 0.062.
`CCC[N+](=O)[O-]` [1-nitropropane] + CCCCCCCCCCCCCC[P+](CCCCCC)(CCCCCC)CCCCCC.N#CC(=C=[N-])C#N: the activity coefficient (338.15 K) was determined as 0.557 ± 0.04, the activity coefficient (348.15 K) turned out to be 0.566 ± 0.041, the activity coefficient (358.15 K) amounted to 0.577 ± 0.041 and the activity coefficient (368.15 K) was 0.585 ± 0.041.
On to `C#CCCCCCC` [1-octyne] + CCCCCCCCCCCCCC[P+](CCCCCC)(CCCCCC)CCCCCC.N#CC(=C=[N-])C#N, for which the activity coefficient runs as follows: (328.15 K) 1.06 ± 0.07; (338.15 K) 1.11 ± 0.07; (348.15 K) 1.16 ± 0.07; (358.15 K) 1.21 ± 0.08; (368.15 K) 1.25 ± 0.08.
For the molecule `C=CCCC` [1-pentene] + CCCCCCCCCCCCCC[P+](CCCCCC)(CCCCCC)CCCCCC.N#CC(=C=[N-])C#N, the activity coefficient is, setting by setting: (328.15 K) 1.25 ± 0.08; (338.15 K) 1.27 ± 0.08; (348.15 K) 1.3 ± 0.08; (358.15 K) 1.32 ± 0.09; (368.15 K) 1.34 ± 0.09.
Regarding `C#CCCC` [1-pentyne] + CCCCCCCCCCCCCC[P+](CCCCCC)(CCCCCC)CCCCCC.N#CC(=C=[N-])C#N, the activity coefficient stood at 0.76 ± 0.05 (328.15 K); 0.797 ± 0.052 (338.15 K); 0.832 ± 0.054 (348.15 K); 0.863 ± 0.055 (358.15 K); 0.893 ± 0.057 (368.15 K).
For `CC(C)CC(C)(C)C` [2,2,4-trimethylpentane] + CCCCCCCCCCCCCC[P+](CCCCCC)(CCCCCC)CCCCCC.N#CC(=C=[N-])C#N the same measures were 2.22 ± 0.15, 2.25 ± 0.15, 2.28 ± 0.16, 2.31 ± 0.16 and 2.33 ± 0.16.
For `CCC(C)(C)C` [2,2-dimethylbutane] + CCCCCCCCCCCCCC[P+](CCCCCC)(CCCCCC)CCCCCC.N#CC(=C=[N-])C#N, in that order: 1.85 ± 0.12, 1.87 ± 0.13, 1.89 ± 0.13, 1.91 ± 0.13 and 1.93 ± 0.13.
Consider `CCOC(C)(C)C` [2-ethoxy-2-methylpropane] + CCCCCCCCCCCCCC[P+](CCCCCC)(CCCCCC)CCCCCC.N#CC(=C=[N-])C#N, for which the activity coefficient (328.15 K) came to 1.4 ± 0.09; the activity coefficient (338.15 K) was determined as 1.45 ± 0.1; the activity coefficient (348.15 K) turned out to be 1.48 ± 0.1; the activity coefficient (358.15 K) is 1.53 ± 0.1; the activity coefficient (368.15 K) stood at 1.56 ± 0.1.
Regarding `CCC(C)(C)OC` [2-methoxy-2-methylbutane] + CCCCCCCCCCCCCC[P+](CCCCCC)(CCCCCC)CCCCCC.N#CC(=C=[N-])C#N, the activity coefficient was 1.01 ± 0.06 (328.15 K); 1.06 ± 0.07 (338.15 K); 1.1 ± 0.07 (348.15 K); 1.14 ± 0.07 (358.15 K); 1.18 ± 0.08 (368.15 K).
Regarding `COC(C)(C)C` [2-methoxy-2-methylpropane] + CCCCCCCCCCCCCC[P+](CCCCCC)(CCCCCC)CCCCCC.N#CC(=C=[N-])C#N, the activity coefficient runs as follows: (328.15 K) 0.946 ± 0.06; (338.15 K) 0.99 ± 0.062; (348.15 K) 1.02 ± 0.06; (358.15 K) 1.06 ± 0.07; (368.15 K) 1.1 ± 0.07.
For `CC(C)CO` [2-methyl-1-propanol] + CCCCCCCCCCCCCC[P+](CCCCCC)(CCCCCC)CCCCCC.N#CC(=C=[N-])C#N, the activity coefficient reads like this: (328.15 K) 0.412 ± 0.034; (338.15 K) 0.418 ± 0.035; (348.15 K) 0.423 ± 0.035; (358.15 K) 0.429 ± 0.035; (368.15 K) 0.434 ± 0.035.
With `CC(C)(C)O` [2-methylpropan-2-ol] + CCCCCCCCCCCCCC[P+](CCCCCC)(CCCCCC)CCCCCC.N#CC(=C=[N-])C#N, the activity coefficient (328.15 K) was found to be 0.492 ± 0.037; the activity coefficient (338.15 K) was 0.503 ± 0.038; the activity coefficient (348.15 K) worked out at 0.513 ± 0.038; the activity coefficient (358.15 K) amounted to 0.526 ± 0.039; the activity coefficient (368.15 K) amounted to 0.537 ± 0.039.
Take `CCC(C)CC` [3-methylpentane] + CCCCCCCCCCCCCC[P+](CCCCCC)(CCCCCC)CCCCCC.N#CC(=C=[N-])C#N: the activity coefficient is 1.69 ± 0.11 (328.15 K); 1.72 ± 0.12 (338.15 K); 1.75 ± 0.12 (348.15 K); 1.78 ± 0.12 (358.15 K); 1.8 ± 0.1 (368.15 K).
Take `C=C(C)c1ccccc1` [(1-methylethenyl)benzene] + CCCCCCCCCCCCCC[P+](CCCCCC)(CCCCCC)CCCCCC.N#CC(=C=[N-])C#N: the activity coefficient reads like this: (338.15 K) 0.64 ± 0.044; (348.15 K) 0.678 ± 0.046; (358.15 K) 0.716 ± 0.048; (368.15 K) 0.751 ± 0.049.
For the molecule `CC(C)=O` [acetone] + CCCCCCCCCCCCCC[P+](CCCCCC)(CCCCCC)CCCCCC.N#CC(=C=[N-])C#N, the activity coefficient reads like this: (328.15 K) 0.454 ± 0.036; (338.15 K) 0.466 ± 0.036; (348.15 K) 0.477 ± 0.037; (358.15 K) 0.491 ± 0.037; (368.15 K) 0.503 ± 0.038.
For the molecule `CC#N` [acetonitrile] + CCCCCCCCCCCCCC[P+](CCCCCC)(CCCCCC)CCCCCC.N#CC(=C=[N-])C#N, the activity coefficient reads like this: (338.15 K) 0.668 ± 0.045; (348.15 K) 0.669 ± 0.045; (358.15 K) 0.671 ± 0.045; (368.15 K) 0.672 ± 0.046.
As for `c1ccccc1` [benzene] + CCCCCCCCCCCCCC[P+](CCCCCC)(CCCCCC)CCCCCC.N#CC(=C=[N-])C#N, the activity coefficient reads like this: (328.15 K) 0.459 ± 0.036; (338.15 K) 0.481 ± 0.037; (348.15 K) 0.5 ± 0.038; (358.15 K) 0.519 ± 0.039; (368.15 K) 0.536 ± 0.039.
`CCCCO` [butan-1-ol] + CCCCCCCCCCCCCC[P+](CCCCCC)(CCCCCC)CCCCCC.N#CC(=C=[N-])C#N: the activity coefficient is, setting by setting: (328.15 K) 0.424 ± 0.035; (338.15 K) 0.435 ± 0.035; (348.15 K) 0.445 ± 0.036; (358.15 K) 0.455 ± 0.036; (368.15 K) 0.464 ± 0.036.
Regarding `CCC(C)O` (configuration not stated) [butan-2-ol] + CCCCCCCCCCCCCC[P+](CCCCCC)(CCCCCC)CCCCCC.N#CC(=C=[N-])C#N, the activity coefficient (328.15 K) worked out at 0.457 ± 0.036; the activity coefficient (338.15 K) turned out to be 0.468 ± 0.037; the activity coefficient (348.15 K) came out at 0.476 ± 0.037; the activity coefficient (358.15 K) came to 0.486 ± 0.037; the activity coefficient (368.15 K) was 0.495 ± 0.038.
For `CCCC=O` [butanal] + CCCCCCCCCCCCCC[P+](CCCCCC)(CCCCCC)CCCCCC.N#CC(=C=[N-])C#N the same measures were 0.46 ± 0.036, 0.477 ± 0.037, 0.494 ± 0.038, 0.513 ± 0.038 and 0.533 ± 0.039.
Take `C1CCCCCC1` [cycloheptane] + CCCCCCCCCCCCCC[P+](CCCCCC)(CCCCCC)CCCCCC.N#CC(=C=[N-])C#N: the activity coefficient is 1.21 ± 0.08 (328.15 K); 1.22 ± 0.08 (338.15 K); 1.23 ± 0.08 (348.15 K); 1.25 ± 0.08 (358.15 K); 1.26 ± 0.08 (368.15 K).
